Tests used:
[1] = Acute toxicity; conditions: mouse, in vivo, ip, Swiss mice, observed for a week
Procedure: The acute toxicity was determined on groups of Swiss mice weighing 18 to 22 g and the test products were administered intraperitoneally in increasing doses and the animals were kept under observation for a week.

[2] = system: DOPA; assay: Potentialization of DOPA; type: in vivo, mice (male); conditions: 1 h before 50 mg/kg DOPA
Procedure: In this test, DOPA [racemic β-(3,4-dihydroxyphenyl)-alanine] was administered to mice pretreated with 1-isonicotinoyl-2-isopropyl-hydrazine18 hours before the test which product caused the following symptoms: hypertonicity, agitation, crying, aggressiveness, salivation and exophthalmia. The administration of an antidepressant one hour before the DOPA injection potentializes the intensity of the effects.
Male mice weighing between 18 to 22 g received intraperitoneally 50 mg/kg of 1-isonicotinoyl-2-isopropyl-hydrazine and 18 hours later the test product intraperitoneally in aqueous solution in increasing doses and 1 hour later received an intraperitoneal injection of 50 mg/kg of DOPA. The different effects were evaluated 15 and 30 minutes after the DOPA injection and each symptom was evaluated for each animal on a scale from 0 to 3 and the evaluations for each dose was totaled. The totals are reported in Table III as a percent of the total of control animals.

[3] = system: amphetamine deaths; assay: Amphetamine toxicity in mice; type: in vivo, mice (female); conditions: for ratio of number of dead animals to number of starting animals: 1 h before 15 mg/kg amphetamine, mortality at 4 h
Procedure: The test was effected on group of 10 female mice weighing between 18 and 22 g kept at 27° C for the duration of the test. The test products were intraperitoneally administered in different doses in a volume of 0.01 ml /g of mouse. One hour later, the mice received an injection of 15 mg/kg of a solution of 1.5 mg of amphetamine per ml of physiological serum. The mortality 4 hours after the amphetamine injection was determined and the results were expressed as a ratio of number of dead animals to number of starting animals.

[4] = system: pentamethylenetetrazol convulsions; assay: Anticonvulsant effect (pentamethylenetetrazol perfusion); type: in vivo, mice (female); conditions: 1 h before perfusion
Procedure: The anticonvulsant activity of the compounds was determined on groups of 10 female mice with intraperitoneal administration of the test compounds in acid solution at different doses and the control group received only the solvent. One hour after the injection, the mice were perfused with a solution of pentamethylenetetrazol in physiological serum at a concentration of 3 mg/ml. The perfusion was intraveinous at a rate of 1 ml per minute and in the course of the perfusion, the progress of introxication was characterized by the following 3 criteria:
a. Threshold of convulsant effect (myoclonia of the ears)
b. Crisis of clonic convulsions
c. Tonic convulsion with apnea and generally followed by death.

[5] = system: amytal sleeping time; assay: Potentialization of sleeping time (amytal); type: in vivo, mice (female); conditions: 1 h before 80 mg/kg amytal i.v.
Procedure: The potentialization of sleeping time was determined with a test using amytal [5-ethyl-5-isoamyl-barbituric acid] in which groups of female mice weighing between 18 and 22 g were kept at 25° C for the duration of the test. The test products were administered intraperitoneally at different doses one hour before intraveinous injection of 80 mg/kg of amytal and the sleeping time was noted which is the time while the reflux of straightening in the mice was negative.

CN(C)CC(=O)N1C2Cc3ccccc3C1c1ccccc12 (stereo not drawn) [Example 14, 12-dimethylaminoacetyl-10,11-dihydro-5,10-imino-[5H]-dibenzo (a,d) cycloheptene dl]
LD50 at 168 h [1]: 150 mg/kg | total symptom score as percent of the total of control animals ([2]; 10 mg/Kg i.p.): 117% | total symptom score as percent of the total of control animals ([2]; 20 mg/Kg i.p.): 160% | total symptom score as percent of the total of control animals ([2]; 50 mg/Kg i.p.): 196%

CN1C2Cc3ccccc3C1c1ccccc12 (stereo not drawn) [Example 15, 12-methyl-10,11-dihydro-5,10-imino-[5H]-dibenzo (a,d) cycloheptene dl]
ratio of number of dead animals to number of starting animals ([3]; 1 mg/Kg i.p.): 6/10 | ratio of number of dead animals to number of starting animals ([3]; 2 mg/Kg i.p.): 1/10 | ratio of number of dead animals to number of starting animals ([3]; 5 mg/Kg i.p.): 0/10 | ratio of number of dead animals to number of starting animals ([3]; 10 mg/Kg i.p.): 0/10 | ratio of number of dead animals to number of starting animals ([3]; 200γ/Kg i.p.): 10/10 | ratio of number of dead animals to number of starting animals ([3]; 500γ/Kg i.p.): 8/10 | ED50 ([3]; Mus musculus, ip, 4 h, i.p., mice, read-out: DA50 (dose which reduced by half the amphetamine deaths)): 1 mg/kg | LD50 at 168 h [1]: 175 mg/kg | Dose of pentamethylenetetrazol, Clonic Crisis ([4]; 1 mg/Kg i.p.): 44.0 mg/kg | Dose of pentamethylenetetrazol, Myoclonia ([4]; 1 mg/Kg i.p.): 38.1 mg/kg | Dose of pentamethylenetetrazol, Tonic Crisis ([4]; 1 mg/Kg i.p.): 182.7 mg/kg | Dose of pentamethylenetetrazol, Clonic Crisis ([4]; 2 mg/Kg i.p.): 52.9 mg/kg | Dose of pentamethylenetetrazol, Myoclonia ([4]; 2 mg/Kg i.p.): 46.7 mg/kg | Dose of pentamethylenetetrazol, Tonic Crisis ([4]; 2 mg/Kg i.p.): 231.8 mg/kg | Dose of pentamethylenetetrazol, Clonic Crisis ([4]; 200γ/Kg i.p.): 43.0 mg/kg | Dose of pentamethylenetetrazol, Myoclonia ([4]; 200γ/Kg i.p.): 38.1 mg/kg | Dose of pentamethylenetetrazol, Tonic Crisis ([4]; 200γ/Kg i.p.): 122.7 mg/kg | Dose of pentamethylenetetrazol, Clonic Crisis ([4]; 500γ/Kg i.p.): 45.9 mg/kg | Dose of pentamethylenetetrazol, Myoclonia ([4]; 500γ/Kg i.p.): 41.1 mg/kg | Dose of pentamethylenetetrazol, Tonic Crisis ([4]; 500γ/Kg i.p.): 134.9 mg/kg | average sleeping time ([5]; 0.5 mg/Kg i.p.): 33.9 min | average sleeping time ([5]; 1 mg/Kg i.p.): 32.9 min | average sleeping time ([5]; 2 mg/Kg i.p.): 30.6 min | average sleeping time ([5]; 5 mg/Kg i.p.): 42.9 min | average sleeping time ([5]; 10 mg/Kg i.p.): 78.6 min

ClCCN1C2Cc3ccccc3C1c1ccccc12 (stereo not drawn) [Example 27, 12-(2'-chloroethyl)-10,11-dihydro-5,10-imino-[5H]-dibenzo (a,d) cycloheptene dl]
ratio of number of dead animals to number of starting animals ([3]; 5 mg/Kg i.p.): 10/10 | ratio of number of dead animals to number of starting animals ([3]; 10 mg/Kg i.p.): 8/10 | ratio of number of dead animals to number of starting animals ([3]; 20 mg/Kg i.p.): 2/10 | LD50 at 168 h [1]: ~150 mg/kg | Dose of pentamethylenetetrazol, Clonic Crisis ([4]; 2 mg/Kg i.p.): 52.9 mg/kg | Dose of pentamethylenetetrazol, Myoclonia ([4]; 2 mg/Kg i.p.): 45.9 mg/kg | Dose of pentamethylenetetrazol, Tonic Crisis ([4]; 2 mg/Kg i.p.): 163.2 mg/kg | Dose of pentamethylenetetrazol, Clonic Crisis ([4]; 5 mg/Kg i.p.): 56.7 mg/kg | Dose of pentamethylenetetrazol, Myoclonia ([4]; 5 mg/Kg i.p.): 51.5 mg/kg | Dose of pentamethylenetetrazol, Tonic Crisis ([4]; 5 mg/Kg i.p.): 229.8 mg/kg | Dose of pentamethylenetetrazol, Clonic Crisis ([4]; 10 mg/Kg i.p.): 62.1 mg/kg | Dose of pentamethylenetetrazol, Myoclonia ([4]; 10 mg/Kg i.p.): 57 mg/kg | Dose of pentamethylenetetrazol, Tonic Crisis ([4]; 10 mg/Kg i.p.): 258.2 mg/kg | average sleeping time ([5]; 2 mg/Kg i.p.): 21.7 min | average sleeping time ([5]; 5 mg/Kg i.p.): 42.2 min | average sleeping time ([5]; 10 mg/Kg i.p.): 44.8 min | average sleeping time ([5]; 20 mg/Kg i.p.): 83.0 min
